The target of one experiment is LRRK2 wild type enzyme (Homo sapiens, UniProt Q5S007). As to the kind of experiment: Biochemical Assay: LRRK2 TR-FRET (LanthaScreen) kinase assay with LRRKtide substrate. The conditions noted are these: LRRK2 Inhibition, Table 8. A digest of the protocol: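 TR-FRET detection (Tb-labelled phospho-LRRKtide antibody, EDTA stop, 30 min) followed a 120 min, 23 °C reaction of 3 nM wild-type human LRRK2 with LRRKtide (400 nM) and ATP (25 μM) in Tris pH 8.0. Compounds: 11-point 3-fold series from 10 μM, 15 min enzyme preincubation.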
For orientation: TR-FRET usually uses a lanthanide donor and a delayed reading to cut background.

In experiment [1] the target is T1, wild type LRRK2 overexpressed in recombinant HEK-293T cells (Homo sapiens, UniProt Q5S007).
T1 construct: host or cells: HEK293T (transient transfection with pCMV-LRRK2 WT plasmid)
As to the kind of experiment: pS935 LRRK2 Cell Assay (HTRF, phospho-LRRK2 Ser935). To be noted: LRRK2 Inhibition, Table 8, 2 hours compound incubation. The experiment is classed as cell-based. A digest of the protocol: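 Phospho-Ser935 LRRK2 measured by two-antibody HTRF (Eu-cryptate donor, d2 acceptor; 665/615 nm ratio) after overnight detection at 23° C. Before lysis, transiently LRRK2-transfected HEK-293T cells were exposed 2 h at 37° C to a 9-point, 3-fold series from 10 μM, with DMSO at 0.2%.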

LRRK2 wild type enzyme, sequence (Q5S007 whole entry): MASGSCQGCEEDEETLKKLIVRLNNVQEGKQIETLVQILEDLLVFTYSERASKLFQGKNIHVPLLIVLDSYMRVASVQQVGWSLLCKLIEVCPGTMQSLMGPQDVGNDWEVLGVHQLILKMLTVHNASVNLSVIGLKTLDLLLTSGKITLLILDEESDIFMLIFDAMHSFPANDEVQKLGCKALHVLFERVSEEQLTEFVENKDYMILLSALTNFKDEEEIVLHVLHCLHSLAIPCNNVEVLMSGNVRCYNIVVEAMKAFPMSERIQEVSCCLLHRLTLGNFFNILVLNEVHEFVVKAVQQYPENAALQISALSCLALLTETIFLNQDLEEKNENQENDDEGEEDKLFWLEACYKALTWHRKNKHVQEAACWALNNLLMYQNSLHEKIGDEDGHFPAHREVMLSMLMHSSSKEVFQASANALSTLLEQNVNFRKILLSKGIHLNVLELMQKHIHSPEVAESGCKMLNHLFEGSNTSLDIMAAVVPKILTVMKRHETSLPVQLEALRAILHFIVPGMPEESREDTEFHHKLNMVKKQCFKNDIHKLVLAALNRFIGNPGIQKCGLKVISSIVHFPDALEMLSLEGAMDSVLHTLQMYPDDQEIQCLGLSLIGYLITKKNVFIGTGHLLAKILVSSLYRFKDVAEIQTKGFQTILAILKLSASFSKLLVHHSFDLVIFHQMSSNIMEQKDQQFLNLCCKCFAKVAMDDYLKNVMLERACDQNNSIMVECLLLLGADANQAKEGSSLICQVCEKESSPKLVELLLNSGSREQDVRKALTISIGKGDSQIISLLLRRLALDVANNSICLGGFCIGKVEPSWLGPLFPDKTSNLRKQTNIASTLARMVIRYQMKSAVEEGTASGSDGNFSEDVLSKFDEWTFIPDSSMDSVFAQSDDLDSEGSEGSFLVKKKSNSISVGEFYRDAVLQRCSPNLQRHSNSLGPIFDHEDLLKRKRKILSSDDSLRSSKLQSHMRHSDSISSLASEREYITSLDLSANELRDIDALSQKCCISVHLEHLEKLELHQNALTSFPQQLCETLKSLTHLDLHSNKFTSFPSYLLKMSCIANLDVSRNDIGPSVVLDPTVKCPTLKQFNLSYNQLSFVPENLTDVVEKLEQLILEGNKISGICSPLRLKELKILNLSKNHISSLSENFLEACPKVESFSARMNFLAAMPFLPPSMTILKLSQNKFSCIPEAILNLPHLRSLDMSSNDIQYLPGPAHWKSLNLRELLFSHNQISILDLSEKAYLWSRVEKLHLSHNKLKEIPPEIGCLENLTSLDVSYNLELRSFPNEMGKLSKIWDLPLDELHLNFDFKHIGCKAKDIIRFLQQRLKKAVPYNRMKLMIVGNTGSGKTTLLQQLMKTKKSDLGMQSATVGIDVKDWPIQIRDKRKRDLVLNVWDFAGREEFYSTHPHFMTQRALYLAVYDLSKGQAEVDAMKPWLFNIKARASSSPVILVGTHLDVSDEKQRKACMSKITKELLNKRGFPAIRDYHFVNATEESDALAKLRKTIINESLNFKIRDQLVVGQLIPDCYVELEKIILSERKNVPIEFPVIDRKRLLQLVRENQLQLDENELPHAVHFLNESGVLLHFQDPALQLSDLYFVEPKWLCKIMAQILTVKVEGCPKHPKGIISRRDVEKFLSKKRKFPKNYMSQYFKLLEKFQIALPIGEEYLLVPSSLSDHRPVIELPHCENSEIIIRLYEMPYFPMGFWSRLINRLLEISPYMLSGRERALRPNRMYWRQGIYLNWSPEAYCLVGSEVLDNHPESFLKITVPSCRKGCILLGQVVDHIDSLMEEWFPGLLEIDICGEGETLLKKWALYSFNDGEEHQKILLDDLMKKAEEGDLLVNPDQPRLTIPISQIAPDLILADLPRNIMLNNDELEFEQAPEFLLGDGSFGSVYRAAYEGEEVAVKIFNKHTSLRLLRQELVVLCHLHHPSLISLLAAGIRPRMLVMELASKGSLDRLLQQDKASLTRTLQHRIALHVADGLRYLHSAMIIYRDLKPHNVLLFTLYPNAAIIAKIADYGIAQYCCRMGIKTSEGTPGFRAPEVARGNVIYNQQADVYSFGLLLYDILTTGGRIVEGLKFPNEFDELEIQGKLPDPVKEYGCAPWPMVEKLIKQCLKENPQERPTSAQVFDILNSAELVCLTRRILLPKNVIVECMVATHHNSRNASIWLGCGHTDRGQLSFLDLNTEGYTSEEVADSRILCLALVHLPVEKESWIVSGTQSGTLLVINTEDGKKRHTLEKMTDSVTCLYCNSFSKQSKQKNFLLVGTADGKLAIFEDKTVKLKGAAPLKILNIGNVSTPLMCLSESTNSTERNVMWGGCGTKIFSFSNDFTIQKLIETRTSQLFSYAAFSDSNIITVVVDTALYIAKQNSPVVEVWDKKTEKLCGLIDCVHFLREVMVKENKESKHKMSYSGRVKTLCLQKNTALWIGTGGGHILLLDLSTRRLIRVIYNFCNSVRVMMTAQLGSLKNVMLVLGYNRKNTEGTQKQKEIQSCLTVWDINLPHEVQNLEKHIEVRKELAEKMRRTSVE
T1 sequence (Q5S007 whole entry): as above

As for `C[C@@H]1C[C@H](n2c(CC(=O)Nc3cnccn3)nc3cnc4ccc(Cl)cc4c32)CCO1` [Compound 371, N-2-pyrazinyl{3-[(2R,4R)-2-methyltetrahydro-2H-pyran-4-yl]-12-chloro-3,5,8-triazatricyclo[7.4.0.0^2,6]trideca-1(9),2(6),4,7,10,12-hexaen-4-yl}acetamide], the IC50 (as a rule, the concentration that inhibits the measured activity by half) against LRRK2 wild type enzyme worked out at 1.13 nM; in experiment [1], 5 nM.

In the case of `COc1ncc(NC(=O)Cc2nc3cnc4ccc(C#N)cc4c3n2[C@@H]2CCO[C@H](C)C2)cn1` [Compound 291, N-(2-methoxy-5-pyrimidinyl){3-[(2R,4R)-2-methyltetrahydro-2H-pyran-4-yl]-12-cyano-3,5,8-triazatricyclo[7.4.0.0^2,6]trideca-1,4,6,8,10,12-hexaen-4-yl}acetamide], the concentration for half-maximal inhibition (IC50) on LRRK2 wild type enzyme was found to be 0.527 nM; in experiment [1] it was 18 nM.

Take `C[C@@H]1C[C@H](n2c(CCC(=O)NCC3CC3)nc3cnc4ccc(C#N)cc4c32)CCO1` [Compound 170, 3-{8-cyano-1-[(2R,4R)-2-methyloxan-4-yl]-1H-imidazo[4,5-c]quinolin-2-yl}-N-(cyclopropylmethyl)propanamide]: the IC50 against LRRK2 wild type enzyme was 3.11 nM; in experiment [1], 329 nM.

Regarding `CC(=O)N1CC[C@@H](c2nc3cnc4ccc(C#N)cc4c3n2[C@@H]2CCO[C@H](C)C2)C1` [Compound 42, 2-[(3R)-1-acetylpyrrolidin-3-yl]-1-[(2R,4R)-2-methyloxan-4-yl]-1H-imidazo[4,5-c]quinoline-8-carbonitrile], the half-maximal inhibitory concentration (IC50) came out at 13 nM against LRRK2 wild type enzyme and 2070 nM in experiment [1].

As to `C[C@@H]1C[C@H](n2c(CS(=O)(=O)C3CC3)nc3cnc4ccc(C5CC5)cc4c32)CCO1` [Compound 62, 2-[(cyclopropanesulfonyl)methyl]-8-cyclopropyl-1-[(2R,4R)-2-methyloxan-4-yl]-1H-imidazo[4,5-c]quinoline], the figures for the IC50 (on LRRK2 wild type enzyme; in experiment [1]) were 16.4 nM and 1250 nM, respectively.

As for `C[C@@H]1C[C@H](n2c(CC(=O)NCCO)nc3cnc4ccc(Cl)cc4c32)CCO1` [Compound 163, 2-{8-chloro-1-[(2R,4R)-2-methyloxan-4-yl]-1H-imidazo[4,5-c]quinolin-2-yl}-N-(2-hydroxyethyl)acetamide], the IC50 stood at 0.676 nM on LRRK2 wild type enzyme and 43.8 nM in experiment [1].

`C[C@@H]1C[C@H](n2c(CC(=O)Nc3ccnn(C)c3=O)nc3cnc4ccc(C#N)cc4c32)CCO1` [Compound 215, N-(2-methyl-3-oxo-2,3-dihydro-4-pyridazinyl){3-[(2R,4R)-2-methyltetrahydro-2H-pyran-4-yl]-12-cyano-3,5,8-triazatricyclo[7.4.0.0^2,6]trideca-1,4,6,8,10,12-hexaen-4-yl}acetamide]: the values for the IC50 (at LRRK2 wild type enzyme; in experiment [1]) were 0.438 nM and 5.85 nM, respectively.

Consider `C[C@@H]1C[C@H](n2c(CN3CCCC3=O)nc3cnc4ccc(C#N)cc4c32)CCO1` [Compound 80, 1-[(2R,4R)-2-methyloxan-4-yl]-2-[(2-oxopyrrolidin-1-yl)methyl]-1H-imidazo[4,5-c]quinoline-8-carbonitrile], for which the figures for the IC50 (against LRRK2 wild type enzyme; in experiment [1]) were 4.28 nM and 447 nM, respectively.

Regarding `C[C@@H]1C[C@H](n2c(CC(=O)NC3(C)COC3)nc3cnc4ccc(Cl)cc4c32)CCO1` [Compound 323, N-(3-methyl-3-oxetanyl){3-[(2R,4R)-2-methyltetrahydro-2H-pyran-4-yl]-12-chloro-3,5,8-triazatricyclo[7.4.0.0^2,6]trideca-1(9),2(6),4,7,10,12-hexaen-4-yl}acetamide], the concentration for half-maximal inhibition (IC50) came out at 2.72 nM against LRRK2 wild type enzyme and 76.9 nM in experiment [1].

With `C[C@@H]1C[C@H](n2c(CC(=O)Nc3ccn(C4COC4)n3)nc3cnc4ccc(C#N)cc4c32)CCO1` [Compound 346, N-[1-(3-oxetanyl)-3-pyrazolyl]{2-[(2R,4R)-2-methyltetrahydro-2H-pyran-4-yl]-12-cyano-3,5,8-triazatricyclo[7.4.0.0^2,6]trideca-1(9),2(6),4,7,10,12-hexaen-4-yl}acetamide], the IC50 against LRRK2 wild type enzyme came to 0.555 nM; in experiment [1] it was 28.5 nM.

The values are drawn from patent US20250270209A1 (INTERLINE THERAPEUTICS, INC., priority 2022, published 2025).
